Results: ChEMBL document CHEMBL5096162, “A review on ferulic acid and analogs based scaffolds for the management of Alzheimer's disease” (Eur J Med Chem, 2021)
One block for each compound: values may come before it.

What was measured:
HepG2 [1] = test: Cytotoxicity against human HepG2 cells assessed reduction in cell viability at 1000 uM by MTT assay; type: toxicity, cell-based; conditions: hepg2, 1000 µM
Acetylcholinesterase [2] = biological target: Acetylcholinesterase (Homo sapiens, UniProt P22303); test: Inhibition of human AchE preincubated for 20 mins followed by substrate addition using acetylthiocholine iodide as substrate by Ellman's method
[3] = Antioxidant activity of compound assessed as trolox equivalent of AAPH radical scavenging activity preincubated for 15 mins followed by AAPH addition and measured for 60 mins by ORAC-FL assay; type: functional; conditions: time 75.0 min
HepG2 [4] = test: Cytotoxicity against human HepG2 cells assessed reduction in cell viability at 1 uM by MTT assay; type: toxicity, cell-based; conditions: hepg2, 1 µM
SH-SY5Y = test: Neuroprotective activity against amyloid beta (1 to 42)-induced cytotoxicity in human SH-SY5Y cells assessed as increase in cell viability at 10 uM incubated for 24 hrs by MTT assay; type: functional
[5] = biological target: Amyloid-beta precursor protein (Homo sapiens) (UniProt P05067); test: Inhibition of amyloid beta (1 to 42) (unknown origin) self aggregation assessed as reduction in fluorescence intensity at 50 uM incubated for 24 hrs by ThT-based fluorimetric assay
Cholinesterase [6] = biological target: T1, Cholinesterase (Equus caballus, UniProt P81908); test: Inhibition of equine BuChE by Ellman's method
[7] = Antioxidant activity assessed as trolox equivalent of ORAC radical scavenging activity by ORAC-FL assay; type: functional
Acetylcholinesterase [8] = biological target: T2, Acetylcholinesterase (Electrophorus electricus, UniProt O42275); test: Inhibition of electric eel AChE incubated for 15 mins using acetylthiocholine as substrate by Ellman's method
Cholinesterase [9] = biological target: T1, Cholinesterase; test: Inhibition of equine BuChE incubated for 15 mins using butyrylthiocholine as substrate by Ellman's method
[10] = biological target: T3, Amine oxidase [flavin-containing] A (Homo sapiens, UniProt P21397); test: Inhibition of recombinant human MAO-A assessed as measuring amount of 4-hydroxyquinoline using kynuramine as substrate incubated for 30 mins by fluorescence spectrophotometry
T3 sequence (P21397 whole entry): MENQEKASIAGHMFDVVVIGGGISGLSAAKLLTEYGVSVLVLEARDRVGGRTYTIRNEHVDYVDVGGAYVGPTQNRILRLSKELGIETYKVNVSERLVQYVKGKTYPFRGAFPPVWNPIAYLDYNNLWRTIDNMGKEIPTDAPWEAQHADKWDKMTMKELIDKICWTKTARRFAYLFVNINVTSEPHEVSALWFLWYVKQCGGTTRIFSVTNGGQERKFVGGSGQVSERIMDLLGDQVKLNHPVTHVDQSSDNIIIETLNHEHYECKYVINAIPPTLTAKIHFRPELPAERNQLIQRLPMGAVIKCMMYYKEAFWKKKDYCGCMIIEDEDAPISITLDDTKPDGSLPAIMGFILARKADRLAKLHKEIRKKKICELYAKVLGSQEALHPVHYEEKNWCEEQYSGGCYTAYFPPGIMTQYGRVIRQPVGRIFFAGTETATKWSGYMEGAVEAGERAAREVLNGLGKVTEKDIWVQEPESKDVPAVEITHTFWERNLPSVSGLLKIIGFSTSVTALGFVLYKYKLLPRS

[11] = biological target: T4, Amine oxidase [flavin-containing] B (Homo sapiens, UniProt P27338); test: Inhibition of recombinant human MAO-B assessed as measuring amount of 4-hydroxyquinoline using kynuramine as substrate incubated for 30 mins by fluorescence spectrophotometry
T4 sequence (P27338 whole entry): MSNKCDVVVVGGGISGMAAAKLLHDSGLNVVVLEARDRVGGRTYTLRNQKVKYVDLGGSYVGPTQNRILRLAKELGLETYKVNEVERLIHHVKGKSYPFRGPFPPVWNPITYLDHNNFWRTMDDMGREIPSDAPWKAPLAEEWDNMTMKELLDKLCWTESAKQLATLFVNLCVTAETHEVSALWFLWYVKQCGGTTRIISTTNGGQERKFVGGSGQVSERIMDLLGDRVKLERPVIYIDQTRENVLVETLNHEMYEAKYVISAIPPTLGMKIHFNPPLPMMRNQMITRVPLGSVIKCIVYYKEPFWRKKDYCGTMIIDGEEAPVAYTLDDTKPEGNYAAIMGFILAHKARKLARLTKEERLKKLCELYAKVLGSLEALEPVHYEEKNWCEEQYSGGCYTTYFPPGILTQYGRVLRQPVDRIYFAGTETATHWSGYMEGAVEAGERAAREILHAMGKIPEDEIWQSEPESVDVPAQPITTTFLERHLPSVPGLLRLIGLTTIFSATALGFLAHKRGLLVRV

[12] = biological target: Amyloid-beta precursor protein (Homo sapiens) (UniProt P05067); test: Inhibition of self-induced amyloid beta (1 to 42) (unknown origin) aggregation at 25 uM incubated for 24 hrs in dark by ThT-based fluorimetric assay
[13] = biological target: Amyloid-beta precursor protein (Homo sapiens) (UniProt P05067); test: Inhibition of self-induced amyloid beta (1 to 42) (unknown origin) aggregation assessed as disaggregation at 25 uM incubated for 24 hrs in dark by ThT-based fluorimetric assay
[14] = Antioxidant activity assessed as DPPH radical scavenging activity measured for 30 mins in dark by UV-Vis spectrophotometric analysis; type: functional
Cholinesterase [15] = biological target: T5, Cholinesterase (Homo sapiens, UniProt P06276); test: Inhibition of human BuchE preincubated for 30 mins followed by substrate addition using butyrylthiocholine iodide as substrate by Ellman's method
[16] = biological target: Amyloid-beta precursor protein (Homo sapiens) (UniProt P05067); test: Inhibition of amyloid beta (1 to 42) (unknown origin) self aggregation assessed as reduction in fluorescence intensity at 20 uM incubated for 24 hrs by ThT-based fluorimetric assay
[17] = Antioxidant activity assessed as DPPH radical scavenging activity incubated for 30 mins by UV-Vis spectrophotometric analysis; type: functional
Acetylcholinesterase [18] = biological target: T2, Acetylcholinesterase; test: Inhibition of electric eel AChE preincubated for 5 mins followed by substrate addition using acetylthiocholine iodide as substrate by Ellman's method
[19] = Antioxidant activity assessed as trolox equivalent of ABTS radical cation scavenging activity measured after 6 mins by UV spectrophotometeric analysis; type: functional
Cholinesterase [20] = biological target: T1, Cholinesterase; test: Inhibition of equine serum BuChE preincubated for 5 mins followed by substrate addition and measured after 5 mins using S-butyrylthiocholine iodide as substrate by Ellman's method
[21] = Antioxidant activity assessed as DPPH radical scavenging activity at 200 uM incubated for 2 hrs in dark by spectrophotometric analysis; type: functional
[22] = Antioxidant activity of compound assessed as trolox equivalent of AAPH radical scavenging activity preincubated for 15 mins followed by AAPH addition and measured every 1 min for 60 mins by ORAC-FL assay; type: functional; conditions: time 75.0 min
[23] = biological target: Amyloid-beta precursor protein (Homo sapiens) (UniProt P05067); test: Inhibition of self-induced amyloid beta (1 to 40) (unknown origin) aggregation at 20 uM incubated for 48 hrs by ThT-based fluorimetric assay
[24] = Metal chelating activity assessed as Fe2+ -ferrozoine complex formation incubated for 10 mins followed by ferrozine addition and further incubated for 10 mins by spectrophotometric assay; conditions: time 20.0 min
[25] = Antioxidant activity of compound assessed as trolox equivalent of AAPH radical scavenging activity preincubated for 15 mins followed by AAPH addition and measured for 120 mins by ORAC-FL assay; type: functional; conditions: time 135.0 min
[26] = Antioxidant activity assessed as DPPH radical scavenging activity measured for 45 mins by spectrophotometric analysis; type: functional
[27] = Antioxidant activity assessed as ABTS radical cation scavenging activity measured every minute for 15 mins by spectrophotometeric analysis; type: functional
[28] = Antioxidant activity assessed as GO radical cation scavenging activity measured for 30 mins by spectrophotometeric analysis; type: functional
Cholinesterase [29] = biological target: T1, Cholinesterase; test: Inhibition of equine serum BuchE preincubated for 6 mins followed by substrate addition using butyrylthiocholine iodide as substrate by DTNB reagent based Ellman method
[30] = biological target: Amyloid-beta precursor protein (Homo sapiens) (UniProt P05067); test: Inhibition of self-induced amyloid beta (1 to 42) (unknown origin) aggregation at 20 uM incubated for 46 to 48 hrs in dark by ThT-based fluorimetric assay; conditions: time 46-48 hrs
Cholinesterase [31] = biological target: T5, Cholinesterase
Description: Inhibition of human BuchE preincubated for 6 mins followed by substrate addition using butyrylthiocholine iodide as substrate by DTNB reagent based Ellman method

Acetylcholinesterase [32] = biological target: T2, Acetylcholinesterase; test: Inhibition of electric eel AChE preincubated for 15 mins followed by substrate addition using acetylthiocholine iodide as substrate by Ellman's method
[33] = Antioxidant activity assessed as DPPH radical scavenging activity at 1 mM incubated for 30 mins by microplate reader method; type: functional
[34] = biological target: Amyloid-beta precursor protein (Homo sapiens) (UniProt P05067); test: Inhibition of amyloid beta (1 to 42) (unknown origin) self aggregation assessed as reduction in fluorescence intensity at 80 uM incubated for 24 hrs by ThT-based fluorimetric assay

Amyloid-beta precursor protein (Homo sapiens), sequence (P05067 whole entry): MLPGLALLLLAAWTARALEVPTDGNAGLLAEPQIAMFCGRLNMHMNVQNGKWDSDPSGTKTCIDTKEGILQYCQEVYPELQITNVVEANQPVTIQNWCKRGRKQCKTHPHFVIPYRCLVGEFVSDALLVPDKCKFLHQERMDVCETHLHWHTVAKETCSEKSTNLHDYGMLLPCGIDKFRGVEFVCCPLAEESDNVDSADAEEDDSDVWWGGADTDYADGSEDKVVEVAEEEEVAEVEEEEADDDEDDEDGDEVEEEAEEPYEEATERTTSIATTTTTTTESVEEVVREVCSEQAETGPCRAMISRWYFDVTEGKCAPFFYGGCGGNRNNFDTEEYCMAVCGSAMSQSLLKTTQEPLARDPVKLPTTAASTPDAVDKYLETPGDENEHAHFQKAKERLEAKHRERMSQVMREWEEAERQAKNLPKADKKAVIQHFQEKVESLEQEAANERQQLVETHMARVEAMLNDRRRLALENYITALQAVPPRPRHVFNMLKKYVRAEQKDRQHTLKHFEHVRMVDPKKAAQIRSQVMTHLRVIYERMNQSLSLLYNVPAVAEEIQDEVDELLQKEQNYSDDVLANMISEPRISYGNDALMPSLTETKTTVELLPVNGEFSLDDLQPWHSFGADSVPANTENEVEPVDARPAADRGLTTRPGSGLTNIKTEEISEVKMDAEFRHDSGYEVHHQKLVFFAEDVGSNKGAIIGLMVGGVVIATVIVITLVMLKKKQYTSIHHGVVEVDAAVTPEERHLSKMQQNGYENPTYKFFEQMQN
T1 sequence (P81908 whole entry): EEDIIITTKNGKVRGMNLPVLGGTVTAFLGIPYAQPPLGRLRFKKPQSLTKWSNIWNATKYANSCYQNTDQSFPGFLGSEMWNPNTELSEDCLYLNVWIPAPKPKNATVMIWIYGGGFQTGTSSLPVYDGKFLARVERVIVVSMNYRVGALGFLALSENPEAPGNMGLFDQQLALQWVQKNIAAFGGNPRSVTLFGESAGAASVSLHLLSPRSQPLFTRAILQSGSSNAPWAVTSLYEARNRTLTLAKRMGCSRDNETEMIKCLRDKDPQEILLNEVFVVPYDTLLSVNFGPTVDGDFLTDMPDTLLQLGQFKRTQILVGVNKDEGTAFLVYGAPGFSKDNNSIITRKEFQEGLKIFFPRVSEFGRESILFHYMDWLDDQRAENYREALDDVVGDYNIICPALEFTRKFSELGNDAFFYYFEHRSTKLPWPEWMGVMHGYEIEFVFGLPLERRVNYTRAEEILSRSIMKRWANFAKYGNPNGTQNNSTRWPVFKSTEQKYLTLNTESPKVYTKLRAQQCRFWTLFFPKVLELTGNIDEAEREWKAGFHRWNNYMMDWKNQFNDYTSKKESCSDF
T2 sequence (O42275 whole entry): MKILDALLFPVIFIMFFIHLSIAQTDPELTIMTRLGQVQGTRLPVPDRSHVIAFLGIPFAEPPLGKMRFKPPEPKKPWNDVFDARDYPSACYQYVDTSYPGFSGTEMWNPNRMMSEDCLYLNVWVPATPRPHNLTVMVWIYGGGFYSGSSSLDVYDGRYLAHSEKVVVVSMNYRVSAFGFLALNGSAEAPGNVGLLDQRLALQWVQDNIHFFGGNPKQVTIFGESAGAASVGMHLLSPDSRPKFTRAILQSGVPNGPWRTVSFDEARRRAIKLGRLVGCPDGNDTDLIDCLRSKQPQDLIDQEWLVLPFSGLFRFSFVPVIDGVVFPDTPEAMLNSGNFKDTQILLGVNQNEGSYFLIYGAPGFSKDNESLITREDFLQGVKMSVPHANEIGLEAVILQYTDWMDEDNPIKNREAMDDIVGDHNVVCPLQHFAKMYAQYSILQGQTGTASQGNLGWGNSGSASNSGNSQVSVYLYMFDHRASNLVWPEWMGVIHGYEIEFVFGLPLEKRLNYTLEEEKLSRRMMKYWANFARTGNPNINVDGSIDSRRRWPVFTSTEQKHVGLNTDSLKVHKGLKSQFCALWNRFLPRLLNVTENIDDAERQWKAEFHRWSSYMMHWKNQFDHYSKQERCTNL
T5 sequence (P06276 whole entry): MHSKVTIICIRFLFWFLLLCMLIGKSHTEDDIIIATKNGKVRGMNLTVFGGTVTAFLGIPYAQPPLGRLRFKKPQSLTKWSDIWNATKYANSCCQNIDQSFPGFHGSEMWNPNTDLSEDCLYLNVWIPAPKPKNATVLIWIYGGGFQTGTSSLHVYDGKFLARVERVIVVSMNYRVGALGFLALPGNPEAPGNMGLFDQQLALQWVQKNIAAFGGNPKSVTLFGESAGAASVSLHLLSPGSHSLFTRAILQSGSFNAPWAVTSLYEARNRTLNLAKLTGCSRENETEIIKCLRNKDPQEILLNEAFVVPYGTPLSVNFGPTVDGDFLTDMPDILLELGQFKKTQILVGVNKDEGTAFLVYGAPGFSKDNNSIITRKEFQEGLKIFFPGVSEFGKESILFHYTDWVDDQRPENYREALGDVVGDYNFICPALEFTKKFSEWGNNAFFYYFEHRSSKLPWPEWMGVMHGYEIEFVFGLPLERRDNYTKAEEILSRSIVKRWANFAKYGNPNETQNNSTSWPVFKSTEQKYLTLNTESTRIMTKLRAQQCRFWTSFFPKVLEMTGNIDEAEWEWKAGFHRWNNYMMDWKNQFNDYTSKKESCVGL
Acetylcholinesterase (Homo sapiens, UniProt P22303), sequence (P22303 whole entry): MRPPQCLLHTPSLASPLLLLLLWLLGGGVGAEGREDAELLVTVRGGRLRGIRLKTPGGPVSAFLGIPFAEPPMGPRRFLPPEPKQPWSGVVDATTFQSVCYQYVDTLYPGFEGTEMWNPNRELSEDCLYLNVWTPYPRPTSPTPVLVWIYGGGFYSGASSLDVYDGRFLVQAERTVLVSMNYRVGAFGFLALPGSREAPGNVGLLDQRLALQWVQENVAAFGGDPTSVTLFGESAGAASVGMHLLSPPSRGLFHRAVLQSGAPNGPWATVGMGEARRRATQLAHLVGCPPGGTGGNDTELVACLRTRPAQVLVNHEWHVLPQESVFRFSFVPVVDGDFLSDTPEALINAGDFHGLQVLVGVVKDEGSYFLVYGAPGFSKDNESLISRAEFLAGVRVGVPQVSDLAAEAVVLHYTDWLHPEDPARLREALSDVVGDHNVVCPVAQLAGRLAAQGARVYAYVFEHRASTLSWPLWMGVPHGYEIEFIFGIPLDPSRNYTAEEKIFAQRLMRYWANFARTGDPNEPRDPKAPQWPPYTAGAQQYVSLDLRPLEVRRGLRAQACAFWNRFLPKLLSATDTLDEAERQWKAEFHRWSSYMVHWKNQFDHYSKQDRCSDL

Structure (SMILES): COc1ccc2nc3c(c(NCCCCCCCCN(CC(=O)Nc4ccc5ccccc5c4)C(=O)/C=C/c4ccc(O)c(OC)c4)c2c1)CCCC3
- Activity (HepG2 [1]): 59.4%
- IC50 (Acetylcholinesterase [2]): 0.0222 µM
- Activity [3]: 4.29 equiv
- Activity (HepG2 [4]): 98.8%
- Activity (SH-SY5Y): 95.1%
- inhibition [5]: 65.6%

Structure (SMILES): COc1ccc2[nH]cc(CCNC(=O)CN(CCC3CCN(Cc4ccccc4)CC3)C(=O)/C=C/c3ccc(O)c(OC)c3)c2c1
- IC50 (Cholinesterase [6]): 0.0104 µM
- Activity [7]: 8.71 equiv

Structure (SMILES): COc1cc(/C=C/C(=O)N2CCc3ccccc3C2)ccc1OCCCCN(CNCc1ccccc1)CNCc1ccccc1
- Activity [7]: 0.52 equiv
- IC50 (Acetylcholinesterase [8]): 12.1 µM
- IC50 (Cholinesterase [9]): 8.93 µM
- IC50 [10]: 6.3 µM
- IC50 [11]: 8.6 µM
- inhibition [12]: 59.3%
- inhibition [13]: 43.8%

- IC50 [14]: 20.8 µM
Structure (SMILES): O=C(/C=C/c1ccc(O)c(O)c1)Nc1cccc2ccccc12

Structure (SMILES): CCCCNC(=O)O[C@@H]1C[C@H]2O[C@@H](OC(=O)CCCCC3CCSS3)C[C@H]2O1 (stereo partly specified)
- IC50 (Cholinesterase [15]): 0.17 µM

Structure (SMILES): COC(=O)/C=C/c1ccc(OCCCCCN2CCN(CC(=O)Nc3c4c(nc5ccccc35)CCCC4)CC2)c(OC)c1
- inhibition [16]: 37.2%

Structure (SMILES): COc1cc(/C=C/C(=O)NCCC2CCN(Cc3ccccc3)CC2)cc(OC)c1O
- IC50 [17]: 24.9 µM
- IC50 (Acetylcholinesterase [18]): 0.39 µM
- Activity [19]: 1.78 equiv

Structure (SMILES): O=C(/C=C/c1ccc(O)c(O)c1)NCCCCCC[P+](c1ccccc1)(c1ccccc1)c1ccccc1
- IC50 (Cholinesterase [20]): 0.15 µM

- inhibition [23]: 66.4%
Structure (SMILES): O=C(NCc1ccccc1)C(c1cnc2ccccc2c1)N(Cc1ccccc1)C(=O)/C=C/c1ccc(O)c(O)c1 (stereo unspecified)
- Activity [21]: 89.1%
- Activity [22]: 5.48 equiv

- Activity [24]: 8.9%
- IC50 [26]: 64.6 µM
- IC50 [27]: 16.8 µM
- IC50 [28]: 37.5 µM
Structure (SMILES): COc1cc(/C=C/C(=O)O)ccc1O [FERULATE]
- Activity [25]: 0.34

- IC50 [17]: 34.1 µM
Structure (SMILES): COc1cc(/C=C/C(=O)NCCC2CCN(Cc3ccccc3)CC2)ccc1O
- Activity [19]: 1.39 equiv

Structure (SMILES): COc1ccc(/C=C/C(=O)Nc2cc[n+](Cc3cccc(F)c3)cc2)cc1OC
- IC50 (Cholinesterase [29]): 0.0031 µM
- inhibition [30]: 63.4%
- IC50 (Cholinesterase [31]): 0.0048 µM

Structure (SMILES): O=C(NCc1ccccc1)C(c1ccnc2ccccc12)N(Cc1ccccc1)C(=O)/C=C/c1ccc(O)c(O)c1 (stereo unspecified)
- Activity [21]: > 77%
- Activity [22]: 4.98 equiv

Structure (SMILES): COc1cc(/C=C/C(=O)O[C@H]2C[C@H]3O[C@H](OC(=O)NCc4ccccc4)C[C@H]3O2)ccc1O
- Activity [7]: 0.635 equiv

Structure (SMILES): COc1ccc(/C=C/C(O)NCCCNc2c3c(nc4ccccc24)CCCC3)cc1OC (stereo unspecified)
- IC50 (Acetylcholinesterase [32]): 0.09 µM
- Activity [33]: 16.8%
- inhibition [34]: 56.5%
